From patent US9814727B2, “Piperazine phenothiazine derivatives for treating spasticity” (UNIVERSITE D'AIX-MARSEILLE, priority 2014, dated 2017)

Key:
[1] = tested on: reciprocal inhibition of lumbar MNs; assay: In vitro extracellular recordings and evaluation of reciprocal inhibition after neonatal spinal cord transection; design: species or system rat
Excerpt: Rats were deeply anesthetized by hypothermia at birth. A dorsal midline skin incision was made over the thoracic vertebra and the overlying fascia and muscles were retracted to expose the dorsal surface of the vertebrae. After a partial laminectomy, the spinal cord was completely transected at the T8 thoracic level with scissors. The lesion cavity was then filled with sterile absorbable local hemostat Surgicoll (Medical Biomaterial Products; Neustadt-Glewe, Germany). The skin incision was closed with sutures (PDSII 6.0, Ethicon; Johnson and Johnson; Brussels, Belgium) and covered by Steri-Strips (3M Health Care; St. Paul, Minn.). The whole surgical procedure took less tan 10 min after anesthesia. Sham-operated rats were treated in the same way except […] the spinal cord transection. Following surgery, the neonates recovered 45 min in a warm environment maintaining the temperature at 35±1° C. Wounds were then cleaned and rats were kept in a warm environment for 40 min before returning to the nest.
Spinal cords isolated from neonatal rats were prepared as described in section 1.2 until “recording”.
Extracellular electrophysiological signals of lumbar VRs and DRs responses were recorded by contact stainless steel electrodes insulated from the bath with vaseline. […]

KCC2 [2] = assay: Western blot of KCC2 in total cell lysate of NSC-34 KCC2 cells; format: cell-based; conditions: 10 μM, 30 min of cell treatment, NSC-34 KCC2 whole cell lysate
Protocol: NSC-34 wild type and KCC2 were cultured in DMEM (Life technologies, Carlsbad, Calif., USA) supplemented with 10% FBS (Life technologies), 50 units/mL penicillin, and 50 µg/mL streptomycin (Life technologies).
Wild-type and KCC2-expressing HEK293 cells or NSC-34 were harvested and homogenised in lysis buffer (PBS containing 1% Igepal CA-630, 0.1% SDS, 10 mM sodium pyrophosphate, 10 mM NaF, 10 mM NaVO4, 10 mM iodoacetamide and cocktail protease inhibitors and centrifugated at 18000 g for 30 minutes at 4° C. Protein concentration in supernatants was determined using DC protein assay (Bio-rad). Same amounts of total proteins were separated in 6% or 7% SDS PAGE and transferred onto PVDF membrane. Once blocked in Tris Buffer Saline 0.05% Tween 5% non-fat dry milk, membranes were probes over night at 4° C. with KCC2 antibody (1/1000 dilution, Merck-Millipore, Billerica, Mass., USA), or anti-phospho-serine940 KCC2 (1/1000 dilution, PhosphoSolutions) or anti-Actin antibody (1/500 dilution, Sigma Aldrich). Anti-rabbit secondary antibody HRP conjugated was used for detection in chemiluminescent system (Thermo Scientific, Waltham, Mass., USA). Signal intensity was measured with the image analysis software Image lab (Bio-Rad, Hercules, Calif., USA). […]

KCC2 [3] = assay: FluxOR fluorescence based thallium (Tl+) influx assay on KCC2-expressing HEK293 cells; format: cell-based; conditions: HEK KCC2 compared to WT HEK cells, non-cytotoxic dose range
Protocol: Wild-type or KCC2-expressing Human Embryonic Kidney (HEK) 293 cells (provided by Prof. Eric Delpire Department of Anesthesiology, Vanderbilt University Medical Center, Nashville, Tenn.) were grown up to 80-90% confluence in DMEM/Ham's F-12 (1:1) (Life technologies, Carlsbad, Calif., USA) supplemented with 10% FBS (Life technologies), 50 units/mL penicillin, and 50 µg/mL streptomycin (Life technologies). KCC2-expressing clones were under puromycin selection (20 μg/ml, Life technologies).
The FluxOR™ potassium ion channel assay (Life Technologies Carlsbad, Calif., USA) was performed as outlined in the product information sheet and an earlier published study (Delpire et al., 2009, Proc. Natl. Acad. Sci. USA, 106, 5383-88) to assess KCC2 activity, and adapted to semi-automated high throughput screening. The experiment was performed in the presence of ouabain 200 μM and bumetanide 10 μM in all buffers to block the Na^+/K^+ pump and NKCC1 cotransporters, respectively. Briefly, cells in suspension were incubated in the loading buffer containing the dye at room temperature for 90 min (1/2000 dilution of FluxOR reagent) at the density of 100.000 cells/75 μl, then centrifugated and resuspended in Assay buffer at the same cell density. A number of 100.000 cells (75 μl) were manually handled in each well to the 96-wells black-walled, μclear-bottom plates (Greiner Bio-One, Monroe, N.C., USA) and 5 μl of chemical compounds 1-8 at different concentrations in PBS 1% DMSO (5, 30 and 50 μM) were added to the plates using the Biomek® NX Laboratory automation workstation (Beckman Coulter, Villepinte, France). After 15 minutes incubation, baseline fluorescent signal was measured with the Polarstar omega microplate reader (490 nm excitation and 520 nm emission, BMG Labtech). Then 20 μL per well of 5× thallium stimulus buffer (final concentrations: Tl^+: 2 mM, K^+: 10 mM) was injected and fluorescent signal was read 30 minutes later.
For each plate, 2 columns were dedicated to controls (cell density range from 0.25 to 1.10^5 cells; loading buffer as blank; untreated or treated with NEM (33 μM, for 15 min) wild-type and KCC2-expressing HEK293 cells).
Baseline fluorescent value was subtracted from the fluorescent value measured 30 min after stimulus buffer injection for each well, and this difference was normalized to the number of cells. […] Values converted to percentages such that the maximum of ratio is 100%.

## CN1CCN(CCCN2c3ccccc3Sc3ccc(Cl)cc32)CC1 [compound 2, 2-chloro-10-[3-(4-methyl-1-piperazinyl)propyl]-10H-phenothiazine]
[1]; 200 μM (so in the source), n=6
  strength of reciprocal inhibition relative to intact spinal cord: inhibition comparable to an intact spinal cord
[1]; 5, 10 and 20 μM, 20 min after onset of application, P5-7 rats transected at birth
  strength of reciprocal inhibition: increased the strength of reciprocal inhibition in a dose-dependent manner
KCC2 [2]
  phosphorylated KCC2 on serine 940: increased
  total KCC2 protein level (monomers+oligomers): increased
KCC2 [3]
  specific activation of KCC2 across a dose range: activate specifically KCC2 in a dose dependant manner
